Calls of active or inactive are those of the source.
Legend:
[1] = target: T1, Lytic switch protein BZLF1 (Epstein-Barr virus (strain B95-8) (HHV-4) (Human herpesvirus 4), UniProt P03206); assay: EBV ZTA inhibitors, dose response, counter-screen for EBNA-1 inhibitor project, biochemical, fluorescence polarization, Epstein-Barr virus, 1536-well (AID 2377); parameters: species or system human gammaherpesvirus 4;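 further: fluorescence polarization of Cy5-labelled ZRE DNA probe bound by purified Zta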
T1 sequence (P03206 whole entry): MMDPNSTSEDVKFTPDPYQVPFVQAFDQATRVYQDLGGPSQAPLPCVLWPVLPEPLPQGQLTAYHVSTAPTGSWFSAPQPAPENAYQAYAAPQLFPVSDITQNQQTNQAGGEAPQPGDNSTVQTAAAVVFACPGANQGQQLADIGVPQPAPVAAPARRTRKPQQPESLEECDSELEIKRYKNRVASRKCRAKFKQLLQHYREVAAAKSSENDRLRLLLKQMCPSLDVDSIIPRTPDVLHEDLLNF

[2] = target: T2, Epstein-Barr nuclear antigen 1 (Epstein-Barr virus (strain B95-8) (HHV-4) (Human herpesvirus 4), UniProt P03211); assay: EBNA-1 inhibitors, dose response, biochemical, fluorescence polarization, 1536-well (AID 2381); parameters: species or system human gammaherpesvirus 4;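 further: fluorescence polarization of a Cy5 DNA probe bound by EBNA-1 protein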
T2 sequence (P03211 whole entry): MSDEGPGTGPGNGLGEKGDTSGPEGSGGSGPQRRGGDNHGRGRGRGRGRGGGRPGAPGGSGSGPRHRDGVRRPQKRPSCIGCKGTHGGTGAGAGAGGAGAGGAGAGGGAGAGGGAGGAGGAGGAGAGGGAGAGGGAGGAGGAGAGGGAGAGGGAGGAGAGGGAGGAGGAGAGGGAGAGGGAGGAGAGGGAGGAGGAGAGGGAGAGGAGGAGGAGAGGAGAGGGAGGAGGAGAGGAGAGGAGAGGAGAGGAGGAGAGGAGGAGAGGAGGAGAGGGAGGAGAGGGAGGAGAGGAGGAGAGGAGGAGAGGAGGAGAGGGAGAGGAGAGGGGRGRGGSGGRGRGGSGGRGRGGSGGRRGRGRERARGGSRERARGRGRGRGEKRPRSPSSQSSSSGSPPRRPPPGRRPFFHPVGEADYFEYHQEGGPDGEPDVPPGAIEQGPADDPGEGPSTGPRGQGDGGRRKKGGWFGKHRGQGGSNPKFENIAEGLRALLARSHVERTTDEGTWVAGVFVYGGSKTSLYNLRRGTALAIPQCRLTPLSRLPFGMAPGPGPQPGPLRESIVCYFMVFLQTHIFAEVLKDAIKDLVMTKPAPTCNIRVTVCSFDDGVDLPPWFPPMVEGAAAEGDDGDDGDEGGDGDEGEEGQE

[3] = inhibitors of PGC1a acetylation in cells, dose response, cell-based, cherry-picked samples (AID 720514); assay type: functional;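 further: potency may reflect raised or lowered acetylation signal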
HEK293 = assay: inhibitors of LMP1-driven NF-kB reporter, dose response, cell-based, HEK293, luciferase, cherry-pick (AID 588343); assay type: functional; settings: Homo sapiens
[4] = Luminescence-based counterscreen assay for KLF5 inhibitors: dose response cell-based high throughput screening assay to identify cytotoxic compounds using the IEC-6 intestinal epithelial cell line. [Related pubchem assays: 1700 (Primary screen.), 1834 (Confirmation screen.), 1858 (Summary AID.), 1905 (Counterscreen.)]; assay type: functional
[5] = target: Peroxisome proliferator-activated receptor gamma/Nuclear receptor corepressor 2 (Homo sapiens, UniProt P37231+Q9Y618); assay: Counterscreen for NR2E3 inverse agonists: TR-FRET-based biochemical high throughput dose response assay to identify inverse agonists of the interaction between peroxisome proliferator-activated receptor gamma (PPARg) and nuclear receptor co-repressor 2 (NCOR2).; assay type: functional
[6] = target: Photoreceptor-specific nuclear receptor (Homo sapiens, UniProt Q9Y5X4); assay: NR2E3 inverse agonists, dose response, biochemical, TR-FRET (AID 463256); assay type: functional
Photoreceptor-specific nuclear receptor, sequence (Q9Y5X4 whole entry): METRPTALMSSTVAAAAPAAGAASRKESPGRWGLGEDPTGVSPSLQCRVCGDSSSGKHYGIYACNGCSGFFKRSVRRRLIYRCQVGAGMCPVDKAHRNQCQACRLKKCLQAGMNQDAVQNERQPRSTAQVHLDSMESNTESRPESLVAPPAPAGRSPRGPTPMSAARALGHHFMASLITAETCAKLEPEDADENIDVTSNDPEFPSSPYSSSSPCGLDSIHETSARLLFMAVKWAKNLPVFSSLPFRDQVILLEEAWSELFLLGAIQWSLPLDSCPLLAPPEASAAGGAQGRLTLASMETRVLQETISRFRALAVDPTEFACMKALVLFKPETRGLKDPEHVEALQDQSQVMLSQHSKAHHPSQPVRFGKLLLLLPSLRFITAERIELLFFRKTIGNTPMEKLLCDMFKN

[7] = HepG2 cell cytotoxicity, dose response, cytotoxicity control, plate reader, cherry-pick, antagonist series (AID 743416); assay type: functional, cell-based
[8] = LGR2 antagonists, dose response, cell-based, HEK293, CRE-luciferase reporter, cherry pick, set 2 (AID 743343); assay type: functional;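 further: transfected cells were stimulated with diluted bursicon conditioned medium after compound addition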
[9] = A549 cell cytotoxicity, dose response, cytotoxicity control, plate reader, cherry-pick, antagonist series (AID 743412); assay type: functional, cell-based
[10] = MC4R antagonists, dose response, counter-screen for LGR2 antagonist project, cell-based, plate reader, cherry pick (AID 743444); assay type: functional;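 further: transfected HEK 293 cells stimulated with alpha-MSH peptide; potency of inhibitors of the alpha-MSH evoked signal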
[11] = HEK293 cell cytotoxicity, dose response, cytotoxicity control, plate reader, cherry-picked samples (AID 743446); assay type: functional, cell-based
Paired box protein Pax-8 = Paired box protein Pax-8 (Homo sapiens, UniProt Q06710); assay: inhibitors of PAX8-driven TPO luciferase reporter, dose response, RMG-I cells, cherry-pick (AID 687027); assay type: functional, cell-based;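 further: luciferase reporter driven by Pax8 target thyroperoxidase promoter measured by SteadyGlo luminescence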
Paired box protein Pax-8, sequence (Q06710 whole entry): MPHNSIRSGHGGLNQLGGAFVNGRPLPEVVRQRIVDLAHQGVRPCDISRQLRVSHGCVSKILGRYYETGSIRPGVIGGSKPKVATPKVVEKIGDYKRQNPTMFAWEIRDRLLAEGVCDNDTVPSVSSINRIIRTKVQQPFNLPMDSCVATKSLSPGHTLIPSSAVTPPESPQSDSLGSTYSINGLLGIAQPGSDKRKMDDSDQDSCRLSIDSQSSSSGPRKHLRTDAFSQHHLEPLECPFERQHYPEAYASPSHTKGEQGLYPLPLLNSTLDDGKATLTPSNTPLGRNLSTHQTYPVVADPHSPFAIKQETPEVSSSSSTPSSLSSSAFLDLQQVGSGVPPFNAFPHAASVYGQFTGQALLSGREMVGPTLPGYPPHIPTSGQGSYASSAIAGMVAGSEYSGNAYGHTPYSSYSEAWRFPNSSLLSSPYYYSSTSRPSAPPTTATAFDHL

[12] = target: Voltage-dependent T-type calcium channel subunit alpha-1H (Homo sapiens, UniProt O95180); assay type: functional;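 further: channel activity triggered by adding a high calcium stimulation buffer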
Voltage-dependent T-type calcium channel subunit alpha-1H, sequence (O95180 whole entry, the tested form may be a part): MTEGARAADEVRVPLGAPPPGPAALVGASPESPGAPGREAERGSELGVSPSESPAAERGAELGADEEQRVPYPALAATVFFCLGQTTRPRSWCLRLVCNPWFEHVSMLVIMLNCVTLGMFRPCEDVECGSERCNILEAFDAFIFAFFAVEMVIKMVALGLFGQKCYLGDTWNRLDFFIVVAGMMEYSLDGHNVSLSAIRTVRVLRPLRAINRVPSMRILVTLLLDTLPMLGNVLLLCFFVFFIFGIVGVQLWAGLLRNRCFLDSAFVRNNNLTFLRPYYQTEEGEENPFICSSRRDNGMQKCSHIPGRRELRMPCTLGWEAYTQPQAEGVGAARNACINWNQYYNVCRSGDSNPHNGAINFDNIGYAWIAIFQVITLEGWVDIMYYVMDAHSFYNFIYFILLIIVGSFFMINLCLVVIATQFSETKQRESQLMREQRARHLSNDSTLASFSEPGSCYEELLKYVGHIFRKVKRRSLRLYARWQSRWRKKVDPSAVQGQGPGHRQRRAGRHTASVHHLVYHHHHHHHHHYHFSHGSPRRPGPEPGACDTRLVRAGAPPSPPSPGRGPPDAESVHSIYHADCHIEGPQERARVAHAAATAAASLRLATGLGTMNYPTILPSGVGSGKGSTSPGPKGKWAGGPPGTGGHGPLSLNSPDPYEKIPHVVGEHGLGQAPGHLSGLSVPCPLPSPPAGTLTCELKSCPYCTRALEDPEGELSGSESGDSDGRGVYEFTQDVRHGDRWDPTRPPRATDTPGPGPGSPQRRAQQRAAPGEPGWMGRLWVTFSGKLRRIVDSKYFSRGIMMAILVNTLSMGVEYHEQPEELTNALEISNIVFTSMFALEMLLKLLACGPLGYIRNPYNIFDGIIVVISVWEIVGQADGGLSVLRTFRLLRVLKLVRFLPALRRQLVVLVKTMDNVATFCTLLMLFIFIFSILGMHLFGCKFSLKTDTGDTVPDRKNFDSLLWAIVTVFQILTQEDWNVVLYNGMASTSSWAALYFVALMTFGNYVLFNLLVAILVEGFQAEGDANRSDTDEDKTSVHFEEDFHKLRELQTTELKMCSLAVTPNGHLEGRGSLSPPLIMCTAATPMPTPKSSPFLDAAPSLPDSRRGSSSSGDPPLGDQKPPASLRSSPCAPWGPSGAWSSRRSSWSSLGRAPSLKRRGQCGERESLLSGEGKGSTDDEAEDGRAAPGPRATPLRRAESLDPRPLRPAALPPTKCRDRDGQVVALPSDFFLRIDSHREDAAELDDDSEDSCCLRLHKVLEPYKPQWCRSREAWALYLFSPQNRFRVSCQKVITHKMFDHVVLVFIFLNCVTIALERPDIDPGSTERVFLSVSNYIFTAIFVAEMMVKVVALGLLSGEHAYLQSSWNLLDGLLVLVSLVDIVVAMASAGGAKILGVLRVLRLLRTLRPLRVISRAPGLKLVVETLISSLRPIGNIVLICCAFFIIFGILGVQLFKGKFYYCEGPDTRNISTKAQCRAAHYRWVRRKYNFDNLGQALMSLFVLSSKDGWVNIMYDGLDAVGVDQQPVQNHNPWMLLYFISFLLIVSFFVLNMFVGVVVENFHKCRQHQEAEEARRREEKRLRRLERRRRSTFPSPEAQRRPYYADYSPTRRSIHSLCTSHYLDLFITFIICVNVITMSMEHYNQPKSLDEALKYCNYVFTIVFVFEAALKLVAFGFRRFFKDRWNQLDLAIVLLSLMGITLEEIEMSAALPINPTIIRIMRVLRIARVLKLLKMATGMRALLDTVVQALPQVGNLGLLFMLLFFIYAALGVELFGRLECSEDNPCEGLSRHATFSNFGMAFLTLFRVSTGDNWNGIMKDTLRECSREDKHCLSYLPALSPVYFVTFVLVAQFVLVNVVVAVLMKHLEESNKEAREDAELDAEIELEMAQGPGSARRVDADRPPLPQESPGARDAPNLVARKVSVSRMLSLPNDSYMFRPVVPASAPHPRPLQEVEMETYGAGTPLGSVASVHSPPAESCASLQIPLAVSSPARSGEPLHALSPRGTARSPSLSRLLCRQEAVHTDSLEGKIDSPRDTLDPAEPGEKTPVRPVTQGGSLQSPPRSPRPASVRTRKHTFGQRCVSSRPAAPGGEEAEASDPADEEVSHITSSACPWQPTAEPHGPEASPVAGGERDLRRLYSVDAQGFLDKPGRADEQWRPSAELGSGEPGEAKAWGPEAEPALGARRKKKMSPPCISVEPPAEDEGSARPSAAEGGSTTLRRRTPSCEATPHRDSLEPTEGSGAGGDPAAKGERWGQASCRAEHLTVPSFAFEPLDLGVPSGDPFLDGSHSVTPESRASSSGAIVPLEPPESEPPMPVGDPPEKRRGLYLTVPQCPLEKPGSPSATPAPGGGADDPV

[13] = target: T3, Oxysterols receptor LXR-beta (Homo sapiens, UniProt P55055); assay type: functional, cell-based;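 further: Cell-based luminescence dose-response assay of agonist activity at LXR, run as a confirmatory counterscreen to a daf-12 agonist screen; HEK293 cells with Gal4-LXR fusion and GAL4-driven luciferase reporter; agonist potency from rising luciferase signal of a Gal4-LXR reporter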
T3 sequence (P55055 whole entry): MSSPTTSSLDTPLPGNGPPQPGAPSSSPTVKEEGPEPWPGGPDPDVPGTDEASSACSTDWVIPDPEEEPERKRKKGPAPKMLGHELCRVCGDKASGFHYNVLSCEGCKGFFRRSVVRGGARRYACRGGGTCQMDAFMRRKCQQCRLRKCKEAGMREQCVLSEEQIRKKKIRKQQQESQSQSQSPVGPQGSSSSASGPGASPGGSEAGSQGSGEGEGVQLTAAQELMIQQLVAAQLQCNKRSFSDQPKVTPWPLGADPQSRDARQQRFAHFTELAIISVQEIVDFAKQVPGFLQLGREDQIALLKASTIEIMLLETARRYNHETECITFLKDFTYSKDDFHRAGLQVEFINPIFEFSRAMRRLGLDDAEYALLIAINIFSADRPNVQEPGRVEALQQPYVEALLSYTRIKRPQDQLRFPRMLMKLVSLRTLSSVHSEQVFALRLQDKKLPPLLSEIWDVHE

[14] = target: FAD-linked sulfhydryl oxidase ALR (Homo sapiens, UniProt P55789); assay: inhibitors of human ALR sulfhydryl oxidase, dose response, biochemical, H2O2 detection, luminescence, cherry-pick (AID 493248)
FAD-linked sulfhydryl oxidase ALR, sequence (P55789 whole entry): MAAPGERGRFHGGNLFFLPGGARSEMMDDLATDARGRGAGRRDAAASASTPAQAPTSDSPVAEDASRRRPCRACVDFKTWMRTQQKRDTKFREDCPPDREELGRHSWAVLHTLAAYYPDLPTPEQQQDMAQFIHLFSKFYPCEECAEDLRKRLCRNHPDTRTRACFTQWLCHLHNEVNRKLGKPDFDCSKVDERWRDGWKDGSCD

Coagulation factor XII = target: T4, Coagulation factor XII (Homo sapiens, UniProt P00748); assay: FXIIa inhibitor potency, concentration-response, biochemical (AID 716); assay type: functional
T4 sequence (P00748 whole entry): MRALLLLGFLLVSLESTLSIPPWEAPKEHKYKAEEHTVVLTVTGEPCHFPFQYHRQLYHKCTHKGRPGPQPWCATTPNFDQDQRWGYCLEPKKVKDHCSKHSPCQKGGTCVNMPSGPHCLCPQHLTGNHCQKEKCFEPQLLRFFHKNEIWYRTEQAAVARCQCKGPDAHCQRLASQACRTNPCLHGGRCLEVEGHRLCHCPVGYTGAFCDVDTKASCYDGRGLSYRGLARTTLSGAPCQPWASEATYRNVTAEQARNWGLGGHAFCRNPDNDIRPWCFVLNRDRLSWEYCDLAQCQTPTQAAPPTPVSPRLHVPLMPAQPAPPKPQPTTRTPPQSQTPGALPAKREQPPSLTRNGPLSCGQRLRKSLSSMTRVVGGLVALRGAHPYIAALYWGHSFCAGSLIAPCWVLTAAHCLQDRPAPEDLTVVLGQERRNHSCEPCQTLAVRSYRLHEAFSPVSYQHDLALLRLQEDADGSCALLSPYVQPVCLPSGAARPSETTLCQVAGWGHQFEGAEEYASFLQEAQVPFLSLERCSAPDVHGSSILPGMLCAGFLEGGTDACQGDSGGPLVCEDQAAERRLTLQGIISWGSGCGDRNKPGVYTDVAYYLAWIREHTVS

Prothrombin = Prothrombin (Homo sapiens, UniProt P00734); assay: Thrombin 1536 HTS Dose Response Confirmation. [Related pubchem assays: 1046 (Thrombin 1536 HTS; hits were confirmed in this assay)]; assay type: functional
[15] = target: DNA dC->dU-editing enzyme APOBEC-3A (Homo sapiens, UniProt P31941); assay: Dose Response confirmation of small molecule APOBEC3A DNA Deaminase Inhibitors via a fluorescence-based single-stranded DNA deaminase assay. [Related pubchem assays (depositor defined):AID493011, AID493024]; assay type: functional
DNA dC->dU-editing enzyme APOBEC-3A, sequence (P31941 whole entry): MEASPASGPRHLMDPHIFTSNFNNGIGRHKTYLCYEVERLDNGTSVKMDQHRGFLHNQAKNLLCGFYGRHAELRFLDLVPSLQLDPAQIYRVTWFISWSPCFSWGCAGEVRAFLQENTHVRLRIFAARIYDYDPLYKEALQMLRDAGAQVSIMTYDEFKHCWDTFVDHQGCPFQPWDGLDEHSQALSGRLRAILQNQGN

[16] = target: DNA dC->dU-editing enzyme APOBEC-3G (Homo sapiens, UniProt Q9HC16); assay type: functional;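 further: Dose-response counterscreen measuring inhibition of APOBEC3G DNA deaminase activity, run while confirming APOBEC3A inhibitors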
DNA dC->dU-editing enzyme APOBEC-3G, sequence (Q9HC16 whole entry, the tested form may be a part): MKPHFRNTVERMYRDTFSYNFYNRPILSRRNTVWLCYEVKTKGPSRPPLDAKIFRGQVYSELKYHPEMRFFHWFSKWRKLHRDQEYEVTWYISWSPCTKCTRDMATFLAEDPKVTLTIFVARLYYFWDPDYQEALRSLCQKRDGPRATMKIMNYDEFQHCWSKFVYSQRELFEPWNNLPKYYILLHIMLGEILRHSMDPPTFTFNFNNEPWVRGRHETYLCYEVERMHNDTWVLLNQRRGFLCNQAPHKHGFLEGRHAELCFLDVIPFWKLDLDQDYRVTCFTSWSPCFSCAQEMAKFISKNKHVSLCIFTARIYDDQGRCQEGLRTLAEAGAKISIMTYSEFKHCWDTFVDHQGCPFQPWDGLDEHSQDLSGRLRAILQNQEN

[17] = target: T5, Carboxy-terminal domain RNA polymerase II polypeptide A small phosphatase 1 (Homo sapiens, UniProt Q9GZU7); assay: inhibitors of CTDSP1, concentration-response testing, biochemical assay, absorbance-based, actives from ultra-high-throughput screening (AID 540297); assay type: functional
T5 sequence (Q9GZU7 whole entry): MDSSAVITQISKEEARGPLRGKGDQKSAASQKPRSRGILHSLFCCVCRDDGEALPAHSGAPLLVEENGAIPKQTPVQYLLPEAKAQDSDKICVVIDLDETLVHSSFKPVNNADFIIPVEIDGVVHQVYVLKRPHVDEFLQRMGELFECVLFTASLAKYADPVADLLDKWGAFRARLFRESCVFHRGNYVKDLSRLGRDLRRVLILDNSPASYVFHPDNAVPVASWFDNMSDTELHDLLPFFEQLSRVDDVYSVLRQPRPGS

[18] = HepG2 cell cytotoxicity, dose response, cytotoxicity control, cherry-picked samples (AID 1159577); assay type: functional, cell-based
[19] = P. falciparum Dd2 growth inhibitors, dose response, SYBR Green, cherry-picked samples (AID 1159567); assay type: functional, cell-based
[20] = Fluorescence-based cell-based high throughput dose response assay for inhibitors of the interaction of nucleotide-binding oligomerization domain containing 2 (NOD2) and the receptor-interacting serine-threonine kinase 2 (RIPK2).; assay type: functional; settings: Homo sapiens
INS1 = assay: beta cell apoptosis inhibitors, cytokine rescue, dose response, luminescence, retest (AID 449756); assay type: functional, cell-based; settings: Rattus norvegicus;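 further: cell death triggered by IL-1 beta plus TNF-alpha plus IFN-gamma mixture; protective hits raise ATP signal compared with cytokine alone wells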
[21] = target: Heat shock protein HSP 90-alpha (Homo sapiens, UniProt P07900); assay type: functional, organism-based

## O=[N+]([O-])c1cccc(/C=N/Nc2nc(NCc3ccccc3)nc(N3CCOCC3)n2)c1
[1]
  IC50: > 111 µM (not active)
[2]
  IC50: 3.45 µM (active)

## O=C(O)c1cc(-c2ccc3c(c2)OCO3)nc2ccccc12
[3]
  AC50: 31 µM (active)

## CCOc1cc(Br)cc(/C=N/NC(=O)c2cccnc2)c1O
HEK293
  AC50: 21.5 µM (active)
[4]
  IC50: 16.8 µM (not active)

## Cc1ccsc1C(=O)Nc1nccs1
[5]
  IC50: 27.3 µM (not active)
[6]
  IC50: > 39.9 µM (not active)

## Cn1nnnc1Sc1ncnc2scc(-c3cccc(S(C)(=O)=O)c3)c12
[7]
  AC50: 17.6 µM (active)
[8]
  AC50: 4.13 µM (active)
[9]
  AC50: 14.9 µM (active)
[10]
  AC50: 2.82 µM (active)
[11]
  AC50: 25.8 µM (active)
Paired box protein Pax-8
  AC50: 2.03 µM (active)
[3]
  AC50: 35.3 µM (active)

## CCc1ccc(-c2nc(CN3CCC(C(=O)NCc4ccc(F)cc4)CC3)c(C)o2)cc1
[12]
  EC50: 4.46 µM (active)

## COc1ccc(-c2cn3c4c(sc3n2)CCCC4)cc1
[13]
  EC50: > 67.5 µM (inactive)
cells
  EC50: > 67.5 µM (inactive)
[14]
  AC50: 0.325 µM (active)

## COc1ccccc1/N=C/c1nc(-c2ccccc2)oc1OC(C)=O
Coagulation factor XII
  IC50: 48.8 µM (active)

## Cn1cc(C(=O)c2ccc(Cl)cc2Cl)cc1C(=O)NN=C(N)COc1ccc(F)cc1
[12]
  EC50: 2.48 µM (active)
Prothrombin
  IC50: 2.13 µM (active)

## Cc1cc(=O)oc2c1c(C)nn2-c1nn[nH]n1
[15]
  IC50: 1.76 µM (active)
[16]
  IC50: 4.36 µM (active)

## CC12CCC(C[N+](C)(C)C1)C2(C)C (centres undefined)
[15]
  IC50: 2.69 µM (active)
[17]
  IC50: 5.62 µM (active)
[16]
  IC50: 4.71 µM (active)

## CCC1=C/C(=C\c2ccc3c(c2)OCO3)C(=O)S1
Coagulation factor XII
  IC50: > 50 µM (inactive)

## O=C(CSc1nnnn1C1CCCCC1)N1c2ccccc2Sc2ccccc21
[12]
  EC50: 7.42 µM (active)

## COc1ccccc1NC(=O)N1CCCCN2[C@@H](CO)[C@H](c3ccc(C#Cc4ccccc4)cc3)[C@@H]2C1
[18]
  AC50: 9.96 µM (active)
[19]
  AC50: < 0.3 µM (active)

## Cc1sc2ncnc(SCC(=O)NNC(=O)COc3cccc4ccccc34)c2c1C
[1]
  IC50: > 111 µM (not active)
[2]
  IC50: 2.02 µM (active)

## Cc1ccccc1Oc1cc(-n2ncc(Cl)c(Cl)c2=O)ncn1
[7]
  AC50: 1.65 µM (active)
[8]
  AC50: 7.89 µM (active)
[9]
  AC50: 4.53 µM (active)
[20]
  IC50: 0.882 µM (active)
INS1
  AC50: 3.02 µM (active)
[10]
  AC50: 9.42 µM (active)
[21]
  AC50: 3.94 µM (active)
[11]
  AC50: 4.45 µM (active)
[3]
  AC50: 4.25 µM (active)

## O=C(Nc1ccc(-c2nc3ncccc3o2)cc1)c1ccc(Br)o1
[5]
  IC50: 3.7 µM (active)
[6]
  IC50: 3.5 µM (active)

## C=CCNc1ncnc2c1[nH]c1ccc(C)cc12
Coagulation factor XII
  IC50: > 50 µM (inactive)

## CCCc1nc(-c2cc3cc(C)ccc3[nH]c2=O)no1
[15]
  IC50: 3.04 µM (active)
[17]
  IC50: 12.8 µM (active)
[16]
  IC50: 2.41 µM (active)

## CC1=CC(=C(C#N)C#N)C=C(C)N1CCN1CCN(C(=O)Nc2ccc(Cl)c(Cl)c2)CC1
[1]
  IC50: > 111 µM (not active)
[2]
  IC50: 16.3 µM (not active)

Source: ChEMBL document CHEMBL1201862, “PubChem BioAssay data set” (2004)
